Test results published in patent publication US9126941B2, “Treatment of hyperproliferative disorders with diarylhydantoin compounds” (The Regents of the University of California, priority 2005, dated 2015).
Read-outs that look alike come from different tables or passages of the source.

Experiments:
[1] = Ranking of compounds in tiers for utility in treating prostate cancer; conditions: assay not specified
Source text: The placement of compounds into tiers was based on available data coupled with analytical judgment. Data considered included in vitro assays (AR response reporter system in LNCaP cell line, PSA level measurement, MTS mitochondrial assay) and in vivo experiments (tumor size measured directly or by emission induced by luciferase reporter gene, pharmacokinetic assays based on blood plasma levels). Not every compound was subjected to each assay. […] Judgment was applied in ranking compounds relative to each other for their utility in treating prostate cancer, in particular when ranking two compounds for which the same experiments were not performed. Characteristics considered in establishing the ranking include AR antagonism activity, lack of AR agonism in hormone refractory cells, prevention of tumor growth, tumor shrinkage, and pharmacokinetic behavior, with a longer residence time in blood being advantageous.

AR [2] = biological target: T1, AR (Homo sapiens, UniProt P10275); assay: cell-based; format: cell-based; conditions: for IC50 (nM) Reporter / Inhibitory activity on AR in reporter system: LNCaP-AR; for IC50 (nM) Reporter: 100 pM R1881, two days, No = did not inhibit AR response reporter; for Inhibitory activity on AR in reporter system: hormone refractory
T1 sequence (P10275 whole entry, looked up): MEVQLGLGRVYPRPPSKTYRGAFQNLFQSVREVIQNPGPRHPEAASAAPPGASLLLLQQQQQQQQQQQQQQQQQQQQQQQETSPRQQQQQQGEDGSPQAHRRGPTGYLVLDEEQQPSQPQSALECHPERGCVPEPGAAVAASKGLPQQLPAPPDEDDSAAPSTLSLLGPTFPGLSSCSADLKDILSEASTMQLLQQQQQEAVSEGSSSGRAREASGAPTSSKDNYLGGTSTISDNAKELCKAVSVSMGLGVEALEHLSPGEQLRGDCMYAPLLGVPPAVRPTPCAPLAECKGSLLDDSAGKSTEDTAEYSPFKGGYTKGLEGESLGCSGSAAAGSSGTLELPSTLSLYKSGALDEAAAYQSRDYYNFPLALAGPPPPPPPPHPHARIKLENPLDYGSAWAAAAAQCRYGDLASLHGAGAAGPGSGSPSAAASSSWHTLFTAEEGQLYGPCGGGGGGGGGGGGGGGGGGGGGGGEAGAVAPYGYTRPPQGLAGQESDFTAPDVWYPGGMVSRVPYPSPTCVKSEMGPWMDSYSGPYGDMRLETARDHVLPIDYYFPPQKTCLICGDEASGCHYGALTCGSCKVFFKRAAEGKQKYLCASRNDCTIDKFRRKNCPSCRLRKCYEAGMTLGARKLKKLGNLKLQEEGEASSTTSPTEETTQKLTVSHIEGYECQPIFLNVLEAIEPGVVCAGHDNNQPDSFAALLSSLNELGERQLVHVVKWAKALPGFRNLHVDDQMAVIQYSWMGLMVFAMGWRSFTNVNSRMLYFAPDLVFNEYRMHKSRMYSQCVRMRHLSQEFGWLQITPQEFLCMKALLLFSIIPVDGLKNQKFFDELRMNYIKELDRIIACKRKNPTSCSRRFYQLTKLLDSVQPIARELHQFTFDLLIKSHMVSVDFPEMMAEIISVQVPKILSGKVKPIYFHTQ
Procedure: The compounds were subjected to tests using an artificial AR response reporter system in a hormone refractory prostate cancer cell line. […] After two days of incubation, reporter activities were assayed.

AR [3] = biological target: T1, AR; assay: cell-based; format: cell-based
Procedure: It is well established that PSA levels are indicators of AR activities in prostate cancer. […] The LNCaP-AR cells are a line of lymph node carcinoma of prostate cells transduced with a plasmid that makes express androgen receptors. […] After four days incubation, secreted PSA levels were assayed using PSA ELISA kits (American Qualex, San Clemente, Calif.)

AR [4] = biological target: T1, AR; assay: cell-based; conditions: for Agonistic activity on AR, reporter: LN-AR, absence of R1881; for fold induction at 0.1 µM: read-out: Fold induction of AR response reporter, 0.1 μM; for fold induction at 1 µM: read-out: Fold induction of AR response reporter, 1 μM; for fold induction at 10 µM: read-out: Fold induction of AR response reporter, 10 μM
Source text: Table 2 lists the agonistic activities of different compounds.

AR [5] = biological target: T1, AR; assay: cell-based; format: cell-based; conditions: for Agonistic activity, secreted PSA: AR over expressed LNCaP, absence of R1881; for fold induction at 0.1 µM / fold induction at 1 µM / fold induction at 10 µM: LNCaP; for fold induction at 0.1 µM: read-out: Fold induction of endogenous PSA, 0.1 μM; for fold induction at 1 µM: read-out: Fold induction of endogenous PSA, 1 μM; for fold induction at 10 µM: read-out: Fold induction of endogenous PSA, 10 μM
[6] = Pharmacokinetics in FVB mice, drug concentration by HPLC
Procedure: Mice were divided into groups of three for each time points. Two mice were not treated with drug and two other mice were treated with vehicle solution. […]
The drug was dissolved in a mixture 1:5:14 of DMSO:PEG400:H20. (Vehicle solution) and was administered into mice through the tail vein. The animals are warmed under a heat lamp for approximately 20 minutes prior to treatment to dilate their tail vein. […] After drug administration, the animals were euthanized via CO2 inhalation at different timepoints: […], […], 2 h, 6 h, 16 h. Animals were immediately bleed after exposure to CO2 via cardiac puncture (1 ml BD syringe+27 G ⅝ needle).
The samples for HPLC analysis were prepared according to the following procedure: • Blood cells were separated from serum by centrifugation. • To 400 μl of serum were added 80 μl of a 10 μM solution of an internal standard and 520 μl of acetonitrile. Precipitation occurred. • The mixture was vortexed for 3 minutes and then placed under ultrasound for 30 minutes. • The solid particles were filtered off or were separated by centrifugation. • The filtrate was dried under an argon flow to dryness.

Row | Structure (SMILES) | Activity (words, overall) [1] | IC50 (nM) Reporter (AR [2]) | Inhibitory activity on AR in reporter system (AR [2]) | IC50 (nM) PSA (AR [3]) | Agonistic activity on AR, reporter (AR [4]) | fold induction at 0.1 µM (AR [4]) | fold induction at 1 µM (AR [4]) | fold induction at 10 µM (AR [4]) | Agonistic activity, secreted PSA (AR [5]) | fold induction at 0.1 µM (AR [5]) | fold induction at 1 µM (AR [5]) | fold induction at 10 µM (AR [5]) | further results
1 | Cc1ccc(N2C(=S)N(c3ccc(C#N)c(I)c3)C(=O)C2(C)C)cc1 [RD100] | good activity |  |  |  |  |  |  |  |  |  |  |  | 
2 | CN1C(=O)N(c2ccc(C#N)c(C(F)(F)F)c2)C(=O)C12CCC2 [RD74, 4-(5-methyl-6,8-dioxo-5,7-diazaspiro[3.4]oct-7-yl)-2-trifluoromethylbenzonitrile, reference compound] |  | No | no inhibitory activities | No | strongly activated AR | 11.4 | 14.3 | 30.6 | stimulated PSA expression | 7.5 | 15.2 | 23.8 | 
3 | Cc1ccc(N2C(=S)N(c3ccc(C#N)c(C(F)(F)F)c3)C(=NC(=S)Nc3ccccc3)C23CCC3)cc1 [RD92, 1-[7-(4-cyano-3-trifluoromethyl-phenyl)-6-thioxo-5-p-tolyl-5,7-diaza-spiro[3.4]oct-8-ylidine]-3-phenyl-thiourea] |  |  |  |  | no agonistic activity | 1.19 | 1.41 | 1.17 | no agonistic activities | 1.31 | 1.05 | 0.9 | 
4 | CC1(C)C(=O)N(c2ccc(C#N)c(C(F)(F)F)c2)C(=S)N1CCCCO [RU 59063, 4-[3-(4-hydroxybutyl)-4,4-dimethyl-5-oxo-2-thioxoimidazolidin-1-yl]-2-trifluoromethylbenzonitrile, reference compound] |  | No(*) |  | No | strongly activated AR | 11 | 20.8 | 34.6 | stimulated PSA expression | 6.88 | 11.5 | 21.5 | 
5 | CN1C(=S)N(c2ccc(C#N)c(C(F)(F)F)c2)C(=O)C12CCCC2 [RD75, 4-(1-methyl-4-oxo-2-thioxo-1,3-diazaspiro[4.4]non-3-yl)-2-trifluoromethylbenzonitrile, reference compound] |  | No | no inhibitory activities | No | strongly activated AR | 17 | 16.6 | 33.8 | stimulated PSA expression | 8.13 | 18.2 | 17.5 | 
6 | CNC(=O)CCCc1ccc(N2C(=S)N(c3ccc(C#N)c(C(F)(F)F)c3)C(=O)C23CCC3)cc1 [RD131, 4-{4-[7-(4-Cyano-3-trifluoromethylphenyl)-8-oxo-6-thioxo-5,7-diaza-spiro[3.4]oct-5-yl]phenyl}-N-methyl-butyramide] | particularly advantageous |  |  |  |  |  |  |  |  |  |  |  | IC50 (AR [2]): 92 nM; IC50 compared with bicalutamide (FIG. 15) (AR [2]; assay not specified): much lower than the IC50 for bicalutamide; Rank order, most active to least active, relative PSA level (FIG. 4) (AR [3]; 500 nM): RD138>RD131>RD37>RD133>RD134>RD137>RD138>RD135>bicalutamide; Decrease in PSA level of LNCaP-AR cells, comparison (FIG. 4) (AR [3]; at concentrations of 1000 nM): greater decrease in PSA level of LNCaP-AR cells than RD133, RD134, and RD138; PSA level, LN/AR cell line, comparison (AR [3]; for a given dose / concentration): less than the PSA level upon exposure to RD128 and RD129; PSA levels of LN-AR cells (FIG. 14) (AR [3]; various doses): PSA levels decreased; Pharmacokinetic behavior, residence time in blood ([6]; mice): metabolize fast; Css, 10 mg/kg [μM] ([6]; steady-state concentration in mice plasma, 10 mg/kg): 0.39 µM; Css, 25 mg/kg [μM] ([6]; steady-state concentration in mice plasma, 25 mg/kg): 0.43 µM; Css, 50 mg/kg [μM] ([6]; steady-state concentration in mice plasma, 50 mg/kg): 0.40 µM
7 | N#Cc1ccc(N2C(=S)N(c3ccc(C#N)c(C(F)(F)F)c3)C(=O)C23CCCC3)cc1 [RD54, 4-[1-(4-cyanophenyl)-4-oxo-2-thioxo-1,3-diazaspiro[4.4]non-3-yl]-2-trifluoromethylbenzonitrile] |  |  |  |  |  |  |  |  |  |  |  |  | IC50 (AR [2]): 469 nM; Indication of agonism [1]: could act as an agonist
8 | CN1C(=S)N(c2ccc(C#N)c(C(F)(F)F)c2)C(=O)C12CCC2 [RD73, 4-(5-methyl-8-oxo-6-thioxo-5,7-diazaspiro[3.4]oct-7-yl)-2-trifluoromethylbenzonitrile, reference compound] |  | No | no inhibitory activities | No | strongly activated AR | 14.9 | 19.4 | 35.2 | stimulated PSA expression | 6.25 | 17.9 | 25.6 | 
9 | Cc1ccc(N2C(=S)N(c3ccc(C#N)c(Cl)c3)C(=O)C2(C)C)cc1 [RD72] | very poor activity |  |  |  |  |  |  |  |  |  |  |  | 
10 | CCNC(=S)N=C1N(c2ccc(C#N)c(C(F)(F)F)c2)C(=S)N(c2ccc(C)cc2)C1(C)C [RD91, 1-[3-(4-cyano-3-trifluoromethyl-phenyl)-5,5-dimethyl-2-thioxo-1-p-tolyl-imidazolidin-4-ylidene]-3-ethyl-thiourea] |  |  |  |  | no agonistic activity | 1.3 | 1.18 | 1.28 | no agonistic activities | 1.06 | 1.3 | 0.85 | 
